Reference: ChEMBL document CHEMBL1201862, “PubChem BioAssay data set” (2004)
Calls of active or inactive are those of the source.

Legend:
HeLa = test: ATP-based viability loss in HeLa cells – cell-based, CellTiter-Glo luminescence, cherry-pick samples, cytotoxicity control for MITF activator project, dose response (AID 540259); type: functional; details: Homo sapiens
[1] = target: Dual specificity tyrosine-phosphorylation-regulated kinase 1A (Rattus norvegicus, UniProt Q63470); type: biochemical, Homo sapiens
Escherichia coli = test: microbe, parasite or virus in culture
Mu-type opioid receptor = Mu-type opioid receptor (Homo sapiens, UniProt P35372); type: functional, cell-based;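 note: U2OS cells with beta-arrestin recruitment to OPRM1 by beta-gal complementation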
Chain of Mu-type opioid receptor (P35372 whole entry): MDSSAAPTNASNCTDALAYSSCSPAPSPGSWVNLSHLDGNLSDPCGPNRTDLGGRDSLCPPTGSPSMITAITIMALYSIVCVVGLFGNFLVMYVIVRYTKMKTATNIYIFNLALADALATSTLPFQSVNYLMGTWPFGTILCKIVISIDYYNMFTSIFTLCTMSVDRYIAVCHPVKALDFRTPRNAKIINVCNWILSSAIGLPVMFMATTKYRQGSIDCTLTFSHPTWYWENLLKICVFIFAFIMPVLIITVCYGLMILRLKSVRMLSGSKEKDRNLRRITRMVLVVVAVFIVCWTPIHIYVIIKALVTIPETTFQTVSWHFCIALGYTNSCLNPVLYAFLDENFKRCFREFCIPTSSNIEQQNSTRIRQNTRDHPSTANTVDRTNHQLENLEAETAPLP

[2] = target: 5-hydroxytryptamine receptor 2A (Mus musculus, UniProt P35363); type: functional, cell-based;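 note: CHO-K1 cells with tagged receptor and beta-arrestin; agonist potency measured as compound-induced activation of the receptor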
Chain of 5-hydroxytryptamine receptor 2A (P35363 whole entry): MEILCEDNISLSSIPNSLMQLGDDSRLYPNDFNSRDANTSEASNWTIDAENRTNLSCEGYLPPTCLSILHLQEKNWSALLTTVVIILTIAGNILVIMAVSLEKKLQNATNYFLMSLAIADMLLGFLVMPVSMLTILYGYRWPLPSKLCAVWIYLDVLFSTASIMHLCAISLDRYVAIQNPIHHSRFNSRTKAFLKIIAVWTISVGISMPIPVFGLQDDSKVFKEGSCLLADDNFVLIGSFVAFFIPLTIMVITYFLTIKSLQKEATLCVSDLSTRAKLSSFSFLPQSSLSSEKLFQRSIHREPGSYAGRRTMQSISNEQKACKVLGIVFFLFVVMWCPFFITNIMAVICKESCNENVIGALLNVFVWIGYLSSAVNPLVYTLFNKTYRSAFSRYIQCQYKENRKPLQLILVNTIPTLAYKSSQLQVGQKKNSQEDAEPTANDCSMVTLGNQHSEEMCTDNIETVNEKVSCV

[3] = Luminescence Cell-Based Dose Response HTS to Identify Activators of Luciferase Translation or Activity in H4 […] Cells. [Related pubchem assays: 1829 (Project Summary), 1814 (Primary HTS)]; type: functional
H4 = test: Luminescence Cell-Based Dose Response HTS to Identify Activators of 5'UTR Stem-Loop Driven Prion Protein mRNA Translation in H4 Neuroglioblastoma Cells. [Related pubchem assays: 1829 (Project Summary), 1814 (Primary HTS)]; type: functional; details: Homo sapiens
[4] = NIH-3T3 fibroblast cytotoxicity, dose response, cytotoxicity control, cell-based, fluorescence, Alamar Blue, secondary assay (AID 2327); type: functional;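 note: NIH-3T3 mouse fibroblasts cultured with fluconazole at 8 µg/mL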
[5] = target: T1, Heat shock factor protein 1 (Mus musculus, UniProt P38532); test: decrease of HSF1-responsive luciferase luminescence – cell-based, NIH3T3, dose retest, confirmation (AID 2382); type: functional;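 note: NIH3T3 fibroblasts with HSF1-driven luciferase reporter stressed by proteasome inhibitor MG132; luminescence from HSF1-driven luciferase expression after 8 hours of MG132 stress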
T1 sequence (P38532 whole entry): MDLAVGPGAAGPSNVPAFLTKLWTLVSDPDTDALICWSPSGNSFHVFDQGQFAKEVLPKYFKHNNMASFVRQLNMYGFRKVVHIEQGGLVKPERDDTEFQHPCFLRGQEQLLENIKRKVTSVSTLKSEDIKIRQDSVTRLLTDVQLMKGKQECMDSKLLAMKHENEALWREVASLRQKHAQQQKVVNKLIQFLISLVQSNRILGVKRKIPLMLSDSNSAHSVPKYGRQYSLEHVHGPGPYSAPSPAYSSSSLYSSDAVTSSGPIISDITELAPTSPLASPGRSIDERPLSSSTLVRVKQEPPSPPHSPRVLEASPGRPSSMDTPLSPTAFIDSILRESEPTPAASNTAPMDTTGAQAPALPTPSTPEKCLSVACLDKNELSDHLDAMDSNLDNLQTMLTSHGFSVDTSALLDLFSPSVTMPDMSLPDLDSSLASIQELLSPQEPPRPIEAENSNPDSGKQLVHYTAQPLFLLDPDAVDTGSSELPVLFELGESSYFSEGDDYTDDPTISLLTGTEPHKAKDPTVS

[6] = fluconazole-exposed Candida albicans growth modulators – fluorescence, retest, confirmation (AID 2467); type: functional, cell-based
[7] = Trypanosoma cruzi growth suppression in host cells – NIH3T3 host cells, beta-gal luminescence, confirmation (AID 2044); type: functional, cell-based;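 note: intracellular parasites grown in NIH/3T3 mouse fibroblasts as host cells; luminescent beta-galactosidase reporter signal from transgenic T. cruzi replicating inside host cells; inhibitors lower the luminescence signal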
[8] = NIH3T3 cell viability loss – ATP luminescence, mouse fibroblasts, counter-screen, dose response (AID 2010); type: functional, cell-based;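 note: cells exposed to compound for about 90 hours before reading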
[9] = target: T2, Oxysterols receptor LXR-beta (Homo sapiens, UniProt P55055); type: functional, cell-based;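 note: Cell-based luminescence dose-response assay of agonist activity at LXR, run as a confirmatory counterscreen to a daf-12 agonist screen; HEK293 cells with Gal4-LXR fusion and GAL4-driven luciferase reporter; agonist potency from rising luciferase signal of a Gal4-LXR reporter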
T2 sequence (P55055 whole entry): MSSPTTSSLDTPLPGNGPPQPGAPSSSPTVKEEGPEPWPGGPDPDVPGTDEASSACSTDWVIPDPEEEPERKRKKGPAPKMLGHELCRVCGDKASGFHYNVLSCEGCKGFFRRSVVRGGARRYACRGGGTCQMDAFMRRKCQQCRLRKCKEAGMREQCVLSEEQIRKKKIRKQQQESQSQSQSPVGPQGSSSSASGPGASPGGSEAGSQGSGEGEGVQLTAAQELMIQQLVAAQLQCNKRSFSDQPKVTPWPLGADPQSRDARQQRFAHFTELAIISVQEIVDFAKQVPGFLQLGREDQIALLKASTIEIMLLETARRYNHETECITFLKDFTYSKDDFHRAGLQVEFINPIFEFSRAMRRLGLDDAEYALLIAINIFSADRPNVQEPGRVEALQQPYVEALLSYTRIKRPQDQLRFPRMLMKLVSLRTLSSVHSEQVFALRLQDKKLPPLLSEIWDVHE

[10] = target: T3, Microphthalmia-associated transcription factor (Homo sapiens, UniProt O75030); test: reducers of TRPM1 reporter luminescence, concentration series – cell-based, SK-MEL-5, cherry-picked, set 3, MITF inhibitor project, dose response (AID 493073); type: functional;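 note: SK-MEL-5 melanoma cells with luciferase driven by the MITF target TRPM1 promoter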
T3 sequence (O75030 whole entry): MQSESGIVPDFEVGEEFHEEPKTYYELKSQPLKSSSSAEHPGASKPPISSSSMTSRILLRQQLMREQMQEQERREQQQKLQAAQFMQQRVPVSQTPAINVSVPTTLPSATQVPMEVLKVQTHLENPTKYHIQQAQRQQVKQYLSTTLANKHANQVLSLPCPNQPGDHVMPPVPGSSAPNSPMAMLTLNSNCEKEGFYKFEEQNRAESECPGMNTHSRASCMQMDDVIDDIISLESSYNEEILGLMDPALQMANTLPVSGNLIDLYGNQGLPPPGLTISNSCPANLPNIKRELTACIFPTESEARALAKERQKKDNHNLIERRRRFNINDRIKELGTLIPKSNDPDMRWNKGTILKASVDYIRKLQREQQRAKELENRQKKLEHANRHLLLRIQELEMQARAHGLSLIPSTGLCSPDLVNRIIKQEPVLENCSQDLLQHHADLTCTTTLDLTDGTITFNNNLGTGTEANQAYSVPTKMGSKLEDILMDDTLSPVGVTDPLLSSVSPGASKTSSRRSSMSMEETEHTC

[11] = reduction of Shn3 3'UTR-driven luciferase in osteoblasts – cell-based, Clone20 osteoblasts, firefly luciferase, cherry-picked, dose response (AID 624132); type: functional;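 note: firefly luciferase luminescence from reporter carrying the Shn3 3'UTR in osteoblasts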
[12] = loss of viability in HepG2 cells – cell-based, CellTiter-Glo, cherry-picked, cytotoxicity control for Shn3 inhibitor project, dose response (AID 624134); type: functional
[13] = non-specific 3'UTR reporter inhibition in Clone20-Shn3RL – cell-based, Renilla luciferase, cherry-picked, counter-screen for Shn3 inhibitor project, dose response (AID 624133); type: functional

Question: Which AC50 (HeLa) does the source give for CCSc1nnc(NC(=O)NC2CCCCC2)s1 here?
Answer: Its AC50 is 136 µM (active).

Question: Which AC50 (HeLa) does the source give for CCc1ccc(NC(=O)c2nnc(O)c3ccccc23)cc1 here?
Answer: Its AC50 is > 350 µM (inactive).

Question: With Nc1c(C(=O)O)ccc2c1C(=O)c1ccccc1C2=O as the compound, how does the AC50 [1] read?
Answer: Its AC50 is 1.28 µM (active).

Question: For CCc1ccc(N2CC(C(=O)N3CCN(c4ccccn4)CC3)CC2=O)cc1 (configuration not stated), which AC50 (Escherichia coli) is on record?
Answer: The AC50 was 29.9 µM (active).

Question: For Oc1ccc(C2=CCNCC2)cc1O, which EC50 (Mu-type opioid receptor) is on record?
Answer: The EC50 was 92.4 µM (inactive).

Question: What about the EC50 [2] of the same compound?
Answer: The EC50 was 0.0242 µM (active).

Question: With CC(C)c1ccc(/C=N/NC(=O)C2CCCC2)cc1 as the compound, how does the EC50 [3] read?
Answer: Its EC50 is 8.02 µM (active).

Question: What about the EC50 (H4) of the same compound?
Answer: Its EC50 is 2.72 µM (active).

Question: What about the AC50 (HeLa) of the same compound?
Answer: Its AC50 is 132 µM (active).

Question: With C(=N\NC1=Nc2cccc3cccc1c23)/c1ccccn1 as the compound, how does the EC50 [4] read?
Answer: Its EC50 is 2.55 µM (inconclusive).

Question: What about the EC50 [5] of the same compound?
Answer: The EC50 was 3.2 µM (active).

Question: What about the EC50 [6] of the same compound?
Answer: Its EC50 is 1.05 µM (active).

Question: What about the EC50 [7] of the same compound?
Answer: Its EC50 is 0.619 µM (active).

Question: And the EC50 [8]?
Answer: The EC50 was > 60 µM (not active).

Question: And the AC50 [1]?
Answer: Its AC50 is 9.7 µM (active).

Question: What about the EC50 [9] of the same compound?
Answer: The EC50 was > 67.5 µM (inactive).

Question: What about the EC50 (cells) of the same compound?
Answer: Its EC50 is > 67.5 µM (inactive).

Question: Which results are given for CC1CCC/C=C/C(=O)c2c(O)cc(O)cc2CC(=O)O1 (configuration not stated)?
Answer: AC50 [10]: 5.79 µM (active); AC50 [11]: 4.12 µM (active); AC50 [12]: > 70 µM (inactive); AC50 [13]: 13.6 µM (active)

Question: Which AC50 (Escherichia coli) does the source give for CC1CCc2cc(F)cc3c(=O)c(C(=O)O)cn1c23 (configuration not stated) [FLUMEQUINE] here?
Answer: Its AC50 is 1.99 µM (active).
